Assay results taken from US11766470B2, “Manufacture, formulation and dosing of apraglutide” (VectivBio AG, priority 2020, dated 2023).
Square brackets hold non-standard residues; d marks the D form. Peptide text beside a SMILES is read from it. ξ: configuration not given here. Ile(3ξ) = CCC(C)[C@H](N)C(=O)O; Thr(3ξ) = CC(O)[C@H](N)C(=O)O; Nle = CCCC[C@H](N)C(=O)O

How the values were obtained:
hGLP-2 receptor = target: T1, hGLP-2 receptor (Homo sapiens, UniProt O95838); assay: hGLP-2 receptor transcriptional reporter gene assay (cAMP-responsive luciferase) in HEK-293 cells (Example 2); format: cell-based
T1 construct: expressed in transfected cells; host or cells: HEK-293 (human embryonic kidney), transient transfection
T1 sequence (O95838 1-553): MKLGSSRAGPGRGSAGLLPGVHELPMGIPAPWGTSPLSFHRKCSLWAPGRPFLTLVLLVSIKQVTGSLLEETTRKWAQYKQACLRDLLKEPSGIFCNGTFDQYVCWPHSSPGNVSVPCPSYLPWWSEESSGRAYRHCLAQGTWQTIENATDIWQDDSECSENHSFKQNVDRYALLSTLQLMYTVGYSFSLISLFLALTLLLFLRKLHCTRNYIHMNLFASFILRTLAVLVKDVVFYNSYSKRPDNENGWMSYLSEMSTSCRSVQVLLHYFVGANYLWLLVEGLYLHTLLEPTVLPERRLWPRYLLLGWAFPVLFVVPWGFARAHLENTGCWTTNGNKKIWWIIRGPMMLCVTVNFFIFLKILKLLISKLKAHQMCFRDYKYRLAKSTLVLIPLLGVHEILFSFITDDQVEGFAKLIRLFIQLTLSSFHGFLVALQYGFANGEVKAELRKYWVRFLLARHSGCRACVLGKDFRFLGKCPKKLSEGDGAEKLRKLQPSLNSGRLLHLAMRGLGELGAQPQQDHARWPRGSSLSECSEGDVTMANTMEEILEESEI
Description: To determine activities of GLP-2 agonists of the present disclosure on the hGLP-2 receptor, a transcriptional reporter gene assay is used. Two constructs are transiently transfected into a human embryonic kidney cell line (HEK-293): an hGLP-2 receptor expression DNA construct and a reporter DNA construct containing intracellular cAMP-responsive promoter elements regulating expression of firefly luciferase. (See for example HimmLer et al., J. Recept. Res., (1993), 13, […] for further guidance on this assay.)
Cells are exposed for 5 hours to serial dilutions of compounds diluted half-log per dose. After exposure to compounds, cells are lysed, luciferase activity is determined, and compound efficacies and EC50 values are determined by non-linear regression analysis. hGLP-2, a naturally occurring 33-amino acid peptide ligand, is used as an internal control in each experiment.

healthy adult volunteers = assay: Safety in multiple dose study in healthy volunteers; format: in vivo, human; details: 1, 5 or 10 mg, 6 weekly SC doses
Experimental: The pharmacokinetic/pharmacodynamic (PK/PD) relationship between apraglutide, a novel long-acting GLP-2 analog in development for short bowel syndrome, and citrulline was evaluated in a randomized, double-blind, parallel arm, placebo-controlled, multiple dose study. 23 healthy adult volunteers received 6 weekly subcutaneous doses of apraglutide (1, 5, or 10 mg) or placebo and were followed for a further 6 weeks after the last dose. Blood collections were controlled for diet, lifestyle, and diurnal effects.

[1] = test system: subjects with severe renal impairment; assay: Safety in Phase I renal impairment trial (Example 10); format: in vivo, human; details: 5 mg single SC dose
Experimental: The following non-limiting example describes a Phase I clinical trial in which subjects with normal and impaired kidney function are treated with the apraglutide formulations of the present disclosure. This Phase I clinical trial investigates the pharmacokinetics and safety of a single subcutaneous dose of 5 mg apraglutide in subjects with varying degrees of renal function. The renal function is calculated by the estimated glomerular filtration rate (eGFR) according to the Chronic Kidney Disease Epidemiology (CKD-EPI) Creatinine Equation.
The trial is a two-stage, open label, multi-center, non-randomized, Phase I trial. In Part 1 of the trial, 8 subjects with severe renal impairment (Cohort 1) and 6 subjects with normal renal function (Cohort 2) will be administered a single dose 5 mg apraglutide of the present disclosure. In Part 2 of the trial, 8 subjects with moderate renal impairment (Cohort 3) and 8 subjects with mild renal impairment (Cohort 4) will be administered a single dose 5 mg apraglutide of the present disclosure. Subjects will be enrolled if the geometric mean ratio (GMR) of AUCinf or AUClast for the severe renal impairment group compared to the control group is ≥2.
The secondary endpoints to be evaluated, include, but are not limited to: • 1. […] Clinically significant change from baseline in recorded triplicate 12-lead ECG at days 14-28 • 10. […]

[2] = as compared with human GLP-2 and other GLP-2 analogues; cited from earlier work

With `CCCC[C@H](NC(=O)[C@H](CCC(=O)O)NC(=O)[C@H](CC(=O)O)NC(=O)[C@H](CO)NC(=O)[C@H](Cc1ccccc1)NC(=O)[C@H](CO)NC(=O)CNC(=O)[C@H](CC(=O)O)NC(=O)CNC(=O)[C@@H](N)Cc1c[nH]cn1)C(=O)N[C@H](Cc1ccccc1)C(=O)N[C@H](C(=O)N[C@H](C(=O)N[C@@H](CC(C)C)C(=O)N[C@@H](CC(=O)O)C(=O)N[C@@H](CC(C)C)C(=O)N[C@@H](CC(C)C)C(=O)N[C@@H](C)C(=O)N[C@@H](C)C(=O)N[C@@H](CCCNC(=N)N)C(=O)N[C@@H](CC(=O)O)C(=O)N[C@@H](Cc1ccccc1)C(=O)N[C@H](C(=O)N[C@@H](CC(N)=O)C(=O)N[C@@H](Cc1c[nH]c2ccccc12)C(=O)N[C@@H](CC(C)C)C(=O)N[C@H](C(=O)N[C@@H](CCC(N)=O)C(=O)N[C@H](C(=O)N[C@@H](CCCCN)C(=O)N[C@H](C(=O)N[C@H](C(=O)N[C@@H](CC(=O)O)C(N)=O)C(C)O)C(C)CC)C(C)O)C(C)CC)C(C)CC)C(C)CC)C(C)O` (stereo partly drawn) [apraglutide, L-histidyl-glycyl-L-aspartyl-glycyl-L-seryl-L-phenylalanyl-L-seryl-L-aspartyl-L-glutamyl-L-norleucyl-D-phenylalanyl-L-threonyl-Lisoleucyl-L-leucyl-L-aspartyl-L-leucyl-L-leucyl-L-alanyl-L-alanyl-L-arginyl-L-aspartyl-L-phenylalanyl-L-isoleucyl-L-asparaginyl-Ltryptophanyl-L-leucyl-L-isoleucyl-L-glutaminyl-L-threonyl-L-lysyl-L-isoleucyl-L-threonyl-Laspartic acid amide] (H-HGDGSFSDE[Nle][dF][Thr(3ξ)][Ile(3ξ)]LDLLAARDF[Ile(3ξ)]NWL[Ile(3ξ)]Q[Thr(3ξ)]K[Ile(3ξ)][Thr(3ξ)]D-NH2) the “Agonist activity, potency and selectivity at the GLP-2 receptor, in words” value (hGLP-2 receptor) was “selective, full agonist of the GLP-2 receptor with potency and selectivity comparable to native GLP-2”, the “Safety and tolerability in words” value (healthy adult volunteers) was “safe and well-tolerated with no serious AEs” and the “Safety in patients with severe CKD, in words” value [1] was “safe to dose the patients with severe CKD with apraglutide 5 mg, without the risk of overdose”. For the same compound, the half-life [2] was “at least 30 hours”.
